Laboratory results published in PMC9661397 (Circulation, 2020).
One block for each compound: values may come before it.

What was measured:
C57BL/6J mice = assay: In vivo electrophysiology study, AF induced by burst pacing; design: species or system mouse; settings: for AF inducibility: 25 mg·kg−1·d−1 IP for 4 weeks (28 days)
BTK^xid mice = settings: 25 mg·kg−1·d−1 IP for 4 weeks, vs vehicle
MEK5 = target: T1, MEK5 (Mus musculus, UniProt Q9WVS7); assay: KiNativ chemoproteomic kinase profiling in mouse heart lysate; type: binding; settings: read-out: % inhibition of MEK5
T1 sequence (Q9WVS7 1-448): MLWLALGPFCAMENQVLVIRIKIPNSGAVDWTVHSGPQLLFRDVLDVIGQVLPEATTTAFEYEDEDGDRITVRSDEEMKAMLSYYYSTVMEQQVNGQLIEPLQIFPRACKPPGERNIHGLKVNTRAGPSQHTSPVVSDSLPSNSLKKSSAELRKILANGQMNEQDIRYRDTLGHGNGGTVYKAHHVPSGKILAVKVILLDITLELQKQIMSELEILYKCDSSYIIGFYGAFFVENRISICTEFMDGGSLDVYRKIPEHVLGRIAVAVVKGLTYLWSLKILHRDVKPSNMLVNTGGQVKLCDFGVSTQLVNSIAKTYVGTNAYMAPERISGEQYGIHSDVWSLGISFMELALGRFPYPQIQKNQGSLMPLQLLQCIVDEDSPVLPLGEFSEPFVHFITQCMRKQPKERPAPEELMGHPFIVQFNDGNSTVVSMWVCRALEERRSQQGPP

IL-6 = assay: Plasma cytokine measurement; type: in vivo, mouse; settings: 25 mg/kg daily for 4 weeks, C57BL/6J mice, vs vehicle
FYN = FYN (Mus musculus, UniProt P39688); assay: KiNativ chemoproteomic kinase profiling in mouse heart lysate; type: binding; settings: read-out: % inhibition of FYN
Sequence of FYN (P39688 whole entry): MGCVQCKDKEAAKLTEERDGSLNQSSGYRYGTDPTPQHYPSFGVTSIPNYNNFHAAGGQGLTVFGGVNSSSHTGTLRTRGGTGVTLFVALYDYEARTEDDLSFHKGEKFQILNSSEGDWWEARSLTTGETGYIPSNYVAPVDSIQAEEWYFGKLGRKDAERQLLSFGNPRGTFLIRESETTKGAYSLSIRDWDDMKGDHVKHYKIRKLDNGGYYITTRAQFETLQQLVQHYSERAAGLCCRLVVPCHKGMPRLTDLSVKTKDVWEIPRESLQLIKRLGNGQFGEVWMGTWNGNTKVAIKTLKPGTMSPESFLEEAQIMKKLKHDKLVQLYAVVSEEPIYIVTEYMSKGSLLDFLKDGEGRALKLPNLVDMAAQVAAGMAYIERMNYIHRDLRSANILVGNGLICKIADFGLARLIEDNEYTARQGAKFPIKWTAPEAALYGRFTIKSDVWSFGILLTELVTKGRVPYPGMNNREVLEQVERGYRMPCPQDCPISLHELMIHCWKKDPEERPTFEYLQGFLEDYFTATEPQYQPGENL

RIPK3 = RIPK3 (Mus musculus, UniProt Q9QZL0); assay: as above; type: binding; settings: read-out: % inhibition of RIPK3
Sequence of RIPK3 (Q9QZL0 whole entry): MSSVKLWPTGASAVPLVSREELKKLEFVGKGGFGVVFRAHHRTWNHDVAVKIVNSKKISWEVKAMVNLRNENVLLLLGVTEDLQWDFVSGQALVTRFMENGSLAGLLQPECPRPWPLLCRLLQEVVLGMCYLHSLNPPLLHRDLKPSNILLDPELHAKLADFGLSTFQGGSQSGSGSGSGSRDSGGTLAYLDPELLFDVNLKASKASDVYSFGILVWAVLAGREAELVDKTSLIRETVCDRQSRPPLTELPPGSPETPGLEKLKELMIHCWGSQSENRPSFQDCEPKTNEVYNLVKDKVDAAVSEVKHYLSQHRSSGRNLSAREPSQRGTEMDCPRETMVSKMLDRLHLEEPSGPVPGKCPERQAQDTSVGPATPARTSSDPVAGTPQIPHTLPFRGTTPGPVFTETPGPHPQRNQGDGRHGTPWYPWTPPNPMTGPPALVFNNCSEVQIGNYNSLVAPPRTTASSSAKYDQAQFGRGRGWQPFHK

[1] = system: Fn1, Col1a1, and Col3a1 mRNA; assay: Quantitative real-time PCR of fibrosis markers in LA tissue; type: in vivo, mouse; settings: 25 mg/kg daily for 4 weeks, C57BL/6J mice
TNFα = assay: Plasma cytokine measurement; type: in vivo, mouse; settings: 25 mg/kg daily for 4 weeks, C57BL/6J mice, vs vehicle
mice = assay: Echocardiography and cardiac MRI of cardiac structure; type: in vivo, mouse
CSK = CSK (Mus musculus, UniProt P41241); assay: KiNativ chemoproteomic kinase profiling in mouse heart lysate; type: binding
Sequence of CSK (P41241 whole entry): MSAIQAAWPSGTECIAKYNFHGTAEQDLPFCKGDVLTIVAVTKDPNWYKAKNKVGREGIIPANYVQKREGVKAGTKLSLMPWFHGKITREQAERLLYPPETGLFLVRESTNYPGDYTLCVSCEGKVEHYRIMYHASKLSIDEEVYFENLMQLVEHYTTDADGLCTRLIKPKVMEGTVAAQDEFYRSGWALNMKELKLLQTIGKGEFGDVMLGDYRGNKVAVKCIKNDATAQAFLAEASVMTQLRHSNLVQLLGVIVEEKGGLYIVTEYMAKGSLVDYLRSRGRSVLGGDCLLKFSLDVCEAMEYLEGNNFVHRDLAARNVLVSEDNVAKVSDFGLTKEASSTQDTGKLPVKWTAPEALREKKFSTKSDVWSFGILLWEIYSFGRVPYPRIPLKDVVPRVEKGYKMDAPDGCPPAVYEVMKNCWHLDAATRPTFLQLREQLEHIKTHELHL

BTK = BTK (Mus musculus, UniProt P35991); assay: as above; type: binding; settings: read-out: % inhibition of BTK
Sequence of BTK (P35991 whole entry): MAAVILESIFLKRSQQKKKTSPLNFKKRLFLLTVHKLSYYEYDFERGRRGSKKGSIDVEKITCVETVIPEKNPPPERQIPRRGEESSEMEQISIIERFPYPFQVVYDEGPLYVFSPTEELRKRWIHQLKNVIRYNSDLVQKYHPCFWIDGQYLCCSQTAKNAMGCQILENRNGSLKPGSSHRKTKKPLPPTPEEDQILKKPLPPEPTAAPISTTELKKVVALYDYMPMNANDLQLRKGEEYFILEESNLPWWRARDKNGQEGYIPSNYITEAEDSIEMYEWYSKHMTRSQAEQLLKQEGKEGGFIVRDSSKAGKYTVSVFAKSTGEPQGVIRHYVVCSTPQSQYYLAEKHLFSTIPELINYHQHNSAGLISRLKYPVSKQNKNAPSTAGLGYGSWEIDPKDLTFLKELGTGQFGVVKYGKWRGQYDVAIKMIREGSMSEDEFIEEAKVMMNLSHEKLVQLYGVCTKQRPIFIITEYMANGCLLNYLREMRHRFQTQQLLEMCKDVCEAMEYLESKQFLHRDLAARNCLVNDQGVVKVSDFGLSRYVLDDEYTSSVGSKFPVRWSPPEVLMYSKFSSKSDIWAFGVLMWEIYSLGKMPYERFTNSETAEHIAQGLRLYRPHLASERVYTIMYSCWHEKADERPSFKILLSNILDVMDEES

[2] = 25 mg/kg daily for 4 weeks, C57BL/6J mice, vs vehicle

SMILES: CN(C)Cc1cccc(N/C(=C2\C(=O)Nc3cc(C(N)=O)ccc32)c2ccccc2)c1 [BIX-02188]
AF inducibility (C57BL/6J mice; C57BL/6J mice, vs vehicle): did not lead to an increase in AF inducibility

AF inducibility (BTK^xid mice): significant increase in AF inducibility
inhibition at 10 µM (MEK5): > 90%
atrial effective refractory periods (C57BL/6J mice; [2]): prolonged
inducible AF (C57BL/6J mice; short duration exposure, mice): did not result in increased inducible AF
circulating interleukin-6 (IL-6) (IL-6): elevated
inhibition at 10 µM (FYN): > 90%
inhibition at 10 µM (RIPK3): > 90%
expression of fibrosis markers fibronectin, and collagens 1α1 and 3α1 [1]: increased expression
left ventricular ejection fraction (mice; 25 mg/kg daily for 4 weeks, C57BL/6J mice, MRI): preserved
atrial dilation (LA size) (mice; [2]): significant atrial dilation
LA enlargement (LA diameter by echocardiography) (mice; BTK^xid mice, 25 mg·kg−1·d−1 IP for 4 weeks): LA enlargement
inhibition at 10 µM (CSK; read-out: % inhibition of CSK): > 90%
SMILES: C=CC(=O)N1CCC[C@@H](n2nc(-c3ccc(Oc4ccccc4)cc3)c3c(N)ncnc32)C1 [ibrutinib]
AF inducibility (C57BL/6J mice; C57BL/6J mice, vs vehicle): more inducible atrial fibrillation than vehicle injected mice
circulating tumor necrosis factor α (TNFα) (TNFα): elevated

AF inducibility (C57BL/6J mice; C57BL/6J mice, vs vehicle): did not result in increased AF
SMILES: CN1CCN(CCOc2cc(OC3CCOCC3)c3c(Nc4c(Cl)ccc5c4OCO5)ncnc3c2)CC1 [saracatinib]

AF inducibility (C57BL/6J mice; C57BL/6J mice, vs vehicle): did not cause AF
inhibition at 10 µM (BTK): > 90%
inhibition at 10 µM (RIPK3): > 90%
% inhibition of CSK (CSK; 10 μM, 15 minutes, mouse heart lysate, ATP probe 20 μmol/L): do not inhibit CSK
SMILES: CC#CC(=O)N1CCC[C@H]1c1nc(-c2ccc(C(=O)Nc3ccccn3)cc2)c2c(N)nccn12 [acalabrutinib]
